Results published in ChEMBL document CHEMBL5532698, “2,3-Dihydroquinazolin-4(1H)-ones and quinazolin-4(3H)-ones as broad-spectrum cytotoxic agents and their impact on tubulin polymerisation” (RSC Med Chem, 2024).

Assays:
A2780 = assay: Antiproliferative activity against human A2780 cells assessed as cell growth inhibition at 25 uM incubated for 72 hrs by MTT assay relative to control; format: functional
HT-29 = assay: Antiproliferative activity against human HT-29 cells assessed as cell growth inhibition at 25 uM incubated for 72 hrs by MTT assay relative to control; format: functional
[1] = Antiproliferative activity against human SJG2 cells assessed as cell growth inhibition at 25 uM incubated for 72 hrs by MTT assay relative to control; format: functional; details: SJ-G2
BE(2)-C = assay: Antiproliferative activity against human BE2C cells assessed as cell growth inhibition at 25 uM incubated for 72 hrs by MTT assay relative to control; format: functional
A-431 = assay: Antiproliferative activity against human A-431 cells assessed as cell growth inhibition at 25 uM incubated for 72 hrs by MTT assay relative to control; format: functional
MIA PaCa-2 = assay: Antiproliferative activity against human MIA PaCa-2 cells assessed as cell growth inhibition at 25 uM incubated for 72 hrs by MTT assay relative to control; format: functional
MCF7 = assay: Antiproliferative activity against human MCF7 cells assessed as cell growth inhibition at 25 uM incubated for 72 hrs by MTT assay relative to control; format: functional
U-87 MG = assay: Antiproliferative activity against human U87 cells assessed as cell growth inhibition at 25 uM incubated for 72 hrs by MTT assay relative to control; format: functional, U-87MG ATCC
[2] = Cytotoxicity against human MCF-10A cells assessed as cell growth inhibition at 25 uM incubated for 72 hrs by MTT assay relative to control; format: toxicity, cell-based
DU-145 = assay: Antiproliferative activity against human DU-145 cells assessed as cell growth inhibition at 25 uM incubated for 72 hrs by MTT assay relative to control; format: functional
NCI-H460 = assay: Antiproliferative activity against human NCI-H460 cells assessed as cell growth inhibition at 25 uM incubated for 72 hrs by MTT assay relative to control; format: functional

Compound `O=C(O)c1cccc(C2NC(=O)c3ccccc3N2)c1` (stereo not drawn) has an inhibition at 25 µM (A2780) of 10%, an inhibition at 25 µM (HT-29) of 24% and an inhibition at 25 µM [1] of 12%. It also gave an inhibition at 25 µM (BE(2)-C) of 12%, an inhibition at 25 µM (A-431) of under 10% and an inhibition at 25 µM (MIA PaCa-2) of 13%. For the same compound, the inhibition at 25 µM (MCF7) was 43%, the inhibition at 25 µM (U-87 MG) was 10% and the inhibition at 72 h, 25 µM [2] was 22%. For the same compound, the inhibition at 25 µM (DU-145) was 31% and the inhibition at 25 µM (NCI-H460) was 12%.

`O=C(O)c1ccc(C2NC(=O)c3ccccc3N2)cc1` (stereo not drawn) gave an inhibition at 25 µM (A2780) of under 10%, an inhibition at 25 µM (HT-29) of 18% and an inhibition at 25 µM [1] of 10%. It also gave an inhibition at 25 µM (BE(2)-C) of 12%, an inhibition at 25 µM (A-431) of under 10% and an inhibition at 25 µM (MIA PaCa-2) of 14%. It also gave an inhibition at 25 µM (MCF7) of 41%, an inhibition at 25 µM (U-87 MG) of 13% and an inhibition at 72 h, 25 µM [2] of 8%. The inhibition at 25 µM (DU-145) was 36% and the inhibition at 25 µM (NCI-H460) was under 10%.

Compound `N#Cc1ccc(C2NC(=O)c3ccccc3N2)cc1` (stereo not drawn) has an inhibition at 25 µM (A2780) of 18%, an inhibition at 25 µM (HT-29) of 16% and an inhibition at 25 µM [1] of 14%. It also gave an inhibition at 25 µM (BE(2)-C) of under 10%, an inhibition at 25 µM (A-431) of under 10% and an inhibition at 25 µM (MIA PaCa-2) of 11%. For the same compound, the inhibition at 25 µM (MCF7) was 40%, the inhibition at 25 µM (U-87 MG) was under 10% and the inhibition at 72 h, 25 µM [2] was 10%. The inhibition at 25 µM (DU-145) was 10% and the inhibition at 25 µM (NCI-H460) was 11%.

For `O=C1NC(C2CCCC2)Nc2ccccc21` (stereo not drawn), the inhibition at 25 µM (A2780) was 39%, the inhibition at 25 µM (HT-29) was 22% and the inhibition at 25 µM [1] was under 10%. For the same compound, the inhibition at 25 µM (BE(2)-C) was 20%, the inhibition at 25 µM (A-431) was 15% and the inhibition at 25 µM (MIA PaCa-2) was 19%. The inhibition at 25 µM (MCF7) was 35%, the inhibition at 25 µM (U-87 MG) was 11% and the inhibition at 72 h, 25 µM [2] was 12%. For the same compound, the inhibition at 25 µM (DU-145) was 22% and the inhibition at 25 µM (NCI-H460) was under 10%.

Work on `COc1cc2c(c(OC)c1OC)-c1ccc(OC)c(=O)cc1[C@@H](NC(C)=O)CC2` [COLCHICINE] yielded an inhibition at 25 µM (A2780) of 62%, an inhibition at 25 µM (HT-29) of 50% and an inhibition at 25 µM [1] of 47%. It also gave an inhibition at 25 µM (BE(2)-C) of 61%, an inhibition at 25 µM (A-431) of 11% and an inhibition at 25 µM (MIA PaCa-2) of 89%. The inhibition at 25 µM (MCF7) was 85%, the inhibition at 25 µM (U-87 MG) was 21% and the inhibition at 72 h, 25 µM [2] was 57%. For the same compound, the inhibition at 25 µM (DU-145) was 34% and the inhibition at 25 µM (NCI-H460) was 35%.

`O=C1NC(c2ccccc2[N+](=O)[O-])Nc2ccccc21` (stereo not drawn) gave an inhibition at 25 µM (A2780) of 33%, an inhibition at 25 µM (HT-29) of 28% and an inhibition at 25 µM [1] of 33%. It also gave an inhibition at 25 µM (BE(2)-C) of under 10%, an inhibition at 25 µM (A-431) of 36% and an inhibition at 25 µM (MIA PaCa-2) of 21%. It also gave an inhibition at 25 µM (MCF7) of 16%, an inhibition at 25 µM (U-87 MG) of 16% and an inhibition at 72 h, 25 µM [2] of 16%. The inhibition at 25 µM (DU-145) was 27% and the inhibition at 25 µM (NCI-H460) was 35%.

In the case of `O=C1NC(c2cc(O)c(O)c(O)c2)Nc2ccccc21` (stereo not drawn), the inhibition at 25 µM (A2780) is reported as 36%, the inhibition at 25 µM (HT-29) is reported as 49% and the inhibition at 25 µM [1] is reported as 10%. For the same compound, the inhibition at 25 µM (BE(2)-C) was 27%, the inhibition at 25 µM (A-431) was 21% and the inhibition at 25 µM (MIA PaCa-2) was 34%. For the same compound, the inhibition at 25 µM (MCF7) was 56%, the inhibition at 25 µM (U-87 MG) was 29% and the inhibition at 72 h, 25 µM [2] was 51%. It also gave an inhibition at 25 µM (DU-145) of 40% and an inhibition at 25 µM (NCI-H460) of 19%.

Work on `O=C1NC(c2ccc3nsnc3c2)Nc2ccccc21` (stereo not drawn) yielded an inhibition at 25 µM (A2780) of 60%, an inhibition at 25 µM (HT-29) of 35% and an inhibition at 25 µM [1] of 29%. It also gave an inhibition at 25 µM (BE(2)-C) of 64%, an inhibition at 25 µM (A-431) of 25% and an inhibition at 25 µM (MIA PaCa-2) of 22%. For the same compound, the inhibition at 25 µM (MCF7) was 49%, the inhibition at 25 µM (U-87 MG) was under 10% and the inhibition at 72 h, 25 µM [2] was 41%. The inhibition at 25 µM (DU-145) was 22% and the inhibition at 25 µM (NCI-H460) was 21%.
